In paper PMC3796444 (PLoS ONE, 2013):
Where a chain is given by its changes, count along the chain named.

Legend:
Test in all cases: fluorescence equilibrium titration of apo-AGT
Assay type in all cases: binding
Conditions in all cases: read-out: K d(PLP) (nM) ^b
[1] = molecular target: T1, alanine:glyoxylate aminotransferase (AGT), AGT WT (major allele) (Homo sapiens, UniProt P21549)
T1 construct: gene AGXT; His-tagged full-length AGT from pCOLDII, expressed in E. coli BL21, IMAC and SEC; about 90 kDa dimer
T1 sequence (P21549 1-392): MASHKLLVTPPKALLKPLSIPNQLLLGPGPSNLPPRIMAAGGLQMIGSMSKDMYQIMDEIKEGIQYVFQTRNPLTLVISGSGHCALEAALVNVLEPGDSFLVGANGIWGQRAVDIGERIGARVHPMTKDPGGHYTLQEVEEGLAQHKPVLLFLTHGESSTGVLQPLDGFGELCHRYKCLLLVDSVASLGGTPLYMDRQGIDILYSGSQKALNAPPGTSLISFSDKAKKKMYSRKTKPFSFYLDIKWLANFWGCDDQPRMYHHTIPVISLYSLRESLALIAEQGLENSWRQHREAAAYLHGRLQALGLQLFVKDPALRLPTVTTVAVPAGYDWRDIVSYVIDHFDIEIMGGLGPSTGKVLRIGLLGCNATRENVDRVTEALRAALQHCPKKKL
Description: (§1) fluorescence equilibrium titration of apo-AGT on alanine:glyoxylate aminotransferase (AGT), AGT WT (major allele)

[2] = molecular target: T2, alanine:glyoxylate aminotransferase (AGT), AGT WT (major allele) (Homo sapiens, UniProt P21549, I340M/P11L)
T2 construct: gene AGXT; His-tagged full-length AGT from pCOLDII, expressed in E. coli BL21, IMAC and SEC; about 90 kDa dimer
T2 sequence (P21549 1-392 P11L/I340M): T1 sequence (P21549 1-392) with P11L, I340M
Description: as §1

[3] = molecular target: T3, alanine:glyoxylate aminotransferase (AGT), AGT WT (major allele) (Homo sapiens, UniProt P21549, I340M/P11L/R197Q)
T3 construct: gene AGXT; His-tagged full-length AGT from pCOLDII, expressed in E. coli BL21, IMAC and SEC; about 90 kDa dimer
T3 sequence (P21549 1-392 P11L/R197Q/I340M): T1 sequence (P21549 1-392) with P11L, R197Q, I340M
Description: as §1

[4] = molecular target: T4, alanine:glyoxylate aminotransferase (AGT), AGT WT (major allele) (Homo sapiens, UniProt P21549, A368T/I340M/P11L)
T4 construct: gene AGXT; His-tagged full-length AGT from pCOLDII, expressed in E. coli BL21, IMAC and SEC; about 90 kDa dimer
T4 sequence (P21549 1-392 P11L/I340M/A368T): T1 sequence (P21549 1-392) with P11L, I340M, A368T
Description: as §1

[5] = molecular target: T5, alanine:glyoxylate aminotransferase (AGT), AGT WT (major allele) (Homo sapiens, UniProt P21549, I340M)
T5 construct: gene AGXT; His-tagged full-length AGT from pCOLDII, expressed in E. coli BL21, IMAC and SEC; about 90 kDa dimer
T5 sequence (P21549 1-392 I340M): T1 sequence (P21549 1-392) with I340M
Description: as §1

[6] = molecular target: T6, alanine:glyoxylate aminotransferase (AGT), AGT WT (major allele) (Homo sapiens, UniProt P21549, A295T/I340M/P11L)
T6 construct: gene AGXT; His-tagged full-length AGT from pCOLDII, expressed in E. coli BL21, IMAC and SEC; about 90 kDa dimer
T6 sequence (P21549 1-392 P11L/A295T/I340M): T1 sequence (P21549 1-392) with P11L, A295T, I340M
Description: as §1

## Cc1ncc(COP(=O)(O)O)c(C=O)c1O [PLP]
[1]
  Kd: 100 ± 30 nM
[2]
  Kd: 157 ± 15 nM
[3]
  Kd: 156 ± 34 nM
[4]
  Kd: 134 ± 26 nM
[5]
  Kd: 172 ± 42 nM
[6]
  Kd: 71 ± 16 nM
